Structures are written as SMILES. Active and inactive are the calls of the source.

Experiment [1] in a line: viability of uninfected HEp-2 cells – cell-based, HTS, cytotoxicity control for RSV inhibitor project, dose response (AID 2410). The class given is functional. The following applies: human respiratory syncytial virus.
For experiment [2], the system named is H9c2. Briefly: cells. Format: functional, cell-based. The note with it: Rattus norvegicus, H9c2, Myocardium.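 Further: confirmatory concentration-response retest of ultra-high-throughput screening hits for modulation of myocardial damage; cell death induced by hydrogen peroxide oxidative stress; compound pretreatment for 60 min then peroxide exposure for 2 h; potency is for protecting the cells against peroxide damage rather than for killing them.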
Experiment [3] addresses Paired box protein Pax-8 (Homo sapiens, UniProt Q06710). The experiment is described as follows: PAX8 transcriptional activity inhibition in RMG-I – RMG-I cells, luciferase, cherry-pick, dose response (AID 687027).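 Further: luciferase reporter driven by Pax8 target thyroperoxidase promoter measured by SteadyGlo luminescence.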 Format: functional, cell-based.
Experiment [4] has as its target T1, Heat shock factor protein 1 (Mus musculus, UniProt P38532).
T1 sequence (P38532 whole entry): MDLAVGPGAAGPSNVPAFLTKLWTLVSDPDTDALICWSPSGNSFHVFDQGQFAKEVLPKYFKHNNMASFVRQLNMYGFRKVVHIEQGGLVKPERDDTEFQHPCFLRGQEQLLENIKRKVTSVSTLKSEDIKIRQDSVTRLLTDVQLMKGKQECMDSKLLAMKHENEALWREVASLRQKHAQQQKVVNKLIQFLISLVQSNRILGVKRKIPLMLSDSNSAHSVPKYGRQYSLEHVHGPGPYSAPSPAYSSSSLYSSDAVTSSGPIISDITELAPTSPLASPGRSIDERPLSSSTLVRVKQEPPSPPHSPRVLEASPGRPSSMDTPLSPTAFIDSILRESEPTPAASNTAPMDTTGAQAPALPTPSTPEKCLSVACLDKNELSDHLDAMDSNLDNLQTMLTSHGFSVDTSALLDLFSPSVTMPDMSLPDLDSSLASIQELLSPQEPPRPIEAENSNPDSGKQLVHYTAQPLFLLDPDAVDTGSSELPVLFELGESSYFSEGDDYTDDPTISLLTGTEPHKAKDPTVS
The experiment is described as follows: decrease of HSF1-responsive luciferase luminescence – cell-based, NIH3T3, dose retest, confirmation (AID 2382).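 Further: NIH3T3 fibroblasts with HSF1-driven luciferase reporter stressed by proteasome inhibitor MG132; luminescence from HSF1-driven luciferase expression after 8 hours of MG132 stress.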 Format: functional.

Experiment [5] has as its target Cytochrome P450 3A4 (Homo sapiens, UniProt P08684).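 Further: CYP3A4 tested as one member of a cytochrome P450 panel screen.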
Experiment [6] has as its target T2, Replicative DNA helicase DnaB (Mycobacterium tuberculosis, UniProt P9WMR3).
T2 sequence (P9WMR3 whole entry): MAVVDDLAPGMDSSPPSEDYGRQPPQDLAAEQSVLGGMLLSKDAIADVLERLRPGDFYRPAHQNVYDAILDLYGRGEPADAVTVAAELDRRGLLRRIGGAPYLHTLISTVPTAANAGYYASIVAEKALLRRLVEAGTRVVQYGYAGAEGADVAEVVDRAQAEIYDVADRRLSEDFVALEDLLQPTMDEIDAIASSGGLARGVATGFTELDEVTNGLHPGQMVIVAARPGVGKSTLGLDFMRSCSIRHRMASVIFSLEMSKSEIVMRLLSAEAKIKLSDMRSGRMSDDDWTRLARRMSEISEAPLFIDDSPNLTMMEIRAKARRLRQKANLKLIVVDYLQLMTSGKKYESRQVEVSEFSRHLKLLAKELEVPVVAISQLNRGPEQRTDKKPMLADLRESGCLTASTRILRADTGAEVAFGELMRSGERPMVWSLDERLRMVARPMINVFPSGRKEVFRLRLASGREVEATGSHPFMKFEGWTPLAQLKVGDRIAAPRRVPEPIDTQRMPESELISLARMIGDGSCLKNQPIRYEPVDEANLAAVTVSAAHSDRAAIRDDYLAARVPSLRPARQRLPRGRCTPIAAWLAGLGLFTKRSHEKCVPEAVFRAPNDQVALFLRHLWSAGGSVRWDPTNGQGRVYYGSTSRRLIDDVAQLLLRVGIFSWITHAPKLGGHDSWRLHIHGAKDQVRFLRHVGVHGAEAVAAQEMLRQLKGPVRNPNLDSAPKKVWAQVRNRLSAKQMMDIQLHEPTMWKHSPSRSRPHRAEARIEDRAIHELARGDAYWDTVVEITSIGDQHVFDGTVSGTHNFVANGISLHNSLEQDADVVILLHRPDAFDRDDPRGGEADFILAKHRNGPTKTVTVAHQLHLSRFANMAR
The experiment is described as follows: DnaB intein splicing inhibitors, dose response, biochemical, cell-free fluorescence (AID 449749). The class given is functional.

The target in experiment [7] is Cytochrome P450 2C9 (Homo sapiens, UniProt P11712).
The target in experiment [8] is T3, Protein RecA (Mycobacterium tuberculosis, UniProt P9WHJ3).
T3 sequence (P9WHJ3 whole entry): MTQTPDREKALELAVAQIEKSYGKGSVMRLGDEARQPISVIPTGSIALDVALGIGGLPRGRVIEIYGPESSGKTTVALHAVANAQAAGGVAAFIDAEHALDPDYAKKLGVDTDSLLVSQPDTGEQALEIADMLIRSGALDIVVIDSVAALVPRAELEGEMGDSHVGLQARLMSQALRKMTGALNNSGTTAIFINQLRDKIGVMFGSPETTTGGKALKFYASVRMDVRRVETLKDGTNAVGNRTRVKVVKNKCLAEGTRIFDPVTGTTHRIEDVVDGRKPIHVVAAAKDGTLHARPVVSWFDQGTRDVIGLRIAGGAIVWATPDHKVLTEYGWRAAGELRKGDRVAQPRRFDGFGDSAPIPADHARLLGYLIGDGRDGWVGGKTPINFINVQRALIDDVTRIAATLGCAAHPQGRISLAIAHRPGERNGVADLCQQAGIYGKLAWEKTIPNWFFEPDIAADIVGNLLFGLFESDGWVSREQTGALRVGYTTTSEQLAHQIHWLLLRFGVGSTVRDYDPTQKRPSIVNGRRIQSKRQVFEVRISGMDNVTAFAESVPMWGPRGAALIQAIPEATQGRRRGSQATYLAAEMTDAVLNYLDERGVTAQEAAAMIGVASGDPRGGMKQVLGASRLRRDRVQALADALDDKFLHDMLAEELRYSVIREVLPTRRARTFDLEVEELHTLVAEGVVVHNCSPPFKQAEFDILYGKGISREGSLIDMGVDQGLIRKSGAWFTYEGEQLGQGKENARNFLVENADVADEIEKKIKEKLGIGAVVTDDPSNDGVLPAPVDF
The experiment is described as follows: Fluorescence Cell-Free Homogeneous Dose Retest to Identify Inhibitors of RecA-Intein Splicing Activity. [Related pubchem assays (depositor defined):AID2097, AID2223, AID489010, AID492950]. Format: functional.

The target in experiment [9] is T4, Cytochrome P450 1A2 (Homo sapiens, UniProt P05177).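 Further: PubChem cytochrome P450 panel assay, CYP1A2 panel member.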
T4 sequence (P05177 whole entry): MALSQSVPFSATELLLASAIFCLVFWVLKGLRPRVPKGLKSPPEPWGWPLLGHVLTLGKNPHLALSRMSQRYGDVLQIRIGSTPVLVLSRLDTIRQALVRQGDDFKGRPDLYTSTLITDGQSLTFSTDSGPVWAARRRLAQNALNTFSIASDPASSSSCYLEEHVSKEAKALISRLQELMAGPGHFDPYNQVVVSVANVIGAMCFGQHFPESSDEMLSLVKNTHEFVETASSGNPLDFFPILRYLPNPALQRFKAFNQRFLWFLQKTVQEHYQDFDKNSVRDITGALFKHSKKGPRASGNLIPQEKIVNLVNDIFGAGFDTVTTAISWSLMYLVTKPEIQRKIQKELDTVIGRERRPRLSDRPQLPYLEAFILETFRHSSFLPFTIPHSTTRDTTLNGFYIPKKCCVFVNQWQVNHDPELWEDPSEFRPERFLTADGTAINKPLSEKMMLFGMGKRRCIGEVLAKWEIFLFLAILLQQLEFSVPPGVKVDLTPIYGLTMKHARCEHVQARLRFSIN

The target in experiment [10] is Cytochrome P450 2D6 (Homo sapiens, UniProt P10635).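 Further: CYP2D6 member of a cytochrome P450 panel assay.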
Experiment [11] in a line: Luminescence Cell-Based Dose Response HTS to Identify Inhibitors of 5'UTR Stem-Loop Driven Prion Protein mRNA Translation in H4 Neuroglioblastoma Cells. [Related pubchem assays: 1827 (Project Summary), 1813 (Primary HTS)]. Format: functional.
A short description of experiment [12]: alpha-synuclein stem-loop luciferase translation blockers – H4 neuroglioma cells, luminescence, confirmation (AID 1988). Format: functional, cell-based.
A short description of experiment [13]: luciferase reporter signal suppression in cells – H4 neuroglioma cells, luminescence, dose response (AID 1990). The class given is functional, cell-based.
Experiment [14] has as its target Cytochrome P450 2C19 (Homo sapiens, UniProt P33261). Briefly: Cytochrome panel assay with activity outcomes. Panel member name: p450-cyp2c19 Compounds with AC50 equal or less than 10 uM are considered active. Format: functional. The note with it: read-out: AC50.

Cytochrome P450 2C9, sequence (P11712 whole entry): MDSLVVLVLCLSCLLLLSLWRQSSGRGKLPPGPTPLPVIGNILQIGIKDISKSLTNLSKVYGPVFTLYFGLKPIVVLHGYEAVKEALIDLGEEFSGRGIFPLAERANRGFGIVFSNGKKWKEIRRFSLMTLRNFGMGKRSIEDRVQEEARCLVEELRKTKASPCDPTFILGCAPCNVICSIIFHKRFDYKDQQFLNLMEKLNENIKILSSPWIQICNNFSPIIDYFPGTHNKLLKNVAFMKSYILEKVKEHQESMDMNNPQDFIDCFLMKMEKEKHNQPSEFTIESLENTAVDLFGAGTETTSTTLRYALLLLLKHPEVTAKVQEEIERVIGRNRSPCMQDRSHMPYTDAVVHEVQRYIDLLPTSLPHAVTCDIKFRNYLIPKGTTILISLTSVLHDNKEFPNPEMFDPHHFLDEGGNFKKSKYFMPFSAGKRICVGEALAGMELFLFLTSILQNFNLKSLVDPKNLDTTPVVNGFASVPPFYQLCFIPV
Cytochrome P450 2C19, sequence (P33261 whole entry): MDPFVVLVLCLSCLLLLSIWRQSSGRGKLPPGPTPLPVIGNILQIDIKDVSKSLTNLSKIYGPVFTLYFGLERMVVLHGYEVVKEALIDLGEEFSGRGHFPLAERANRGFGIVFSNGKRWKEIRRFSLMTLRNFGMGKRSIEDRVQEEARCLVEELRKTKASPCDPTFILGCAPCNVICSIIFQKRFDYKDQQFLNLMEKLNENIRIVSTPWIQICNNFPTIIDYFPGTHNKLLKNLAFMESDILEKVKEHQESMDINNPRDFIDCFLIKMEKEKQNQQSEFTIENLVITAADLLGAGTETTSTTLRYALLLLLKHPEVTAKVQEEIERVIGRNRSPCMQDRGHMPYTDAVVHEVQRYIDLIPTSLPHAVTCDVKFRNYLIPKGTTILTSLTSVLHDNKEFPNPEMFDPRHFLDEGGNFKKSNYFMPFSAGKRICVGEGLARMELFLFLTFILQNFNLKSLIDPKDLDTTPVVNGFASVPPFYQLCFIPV
Cytochrome P450 2D6, sequence (P10635 whole entry): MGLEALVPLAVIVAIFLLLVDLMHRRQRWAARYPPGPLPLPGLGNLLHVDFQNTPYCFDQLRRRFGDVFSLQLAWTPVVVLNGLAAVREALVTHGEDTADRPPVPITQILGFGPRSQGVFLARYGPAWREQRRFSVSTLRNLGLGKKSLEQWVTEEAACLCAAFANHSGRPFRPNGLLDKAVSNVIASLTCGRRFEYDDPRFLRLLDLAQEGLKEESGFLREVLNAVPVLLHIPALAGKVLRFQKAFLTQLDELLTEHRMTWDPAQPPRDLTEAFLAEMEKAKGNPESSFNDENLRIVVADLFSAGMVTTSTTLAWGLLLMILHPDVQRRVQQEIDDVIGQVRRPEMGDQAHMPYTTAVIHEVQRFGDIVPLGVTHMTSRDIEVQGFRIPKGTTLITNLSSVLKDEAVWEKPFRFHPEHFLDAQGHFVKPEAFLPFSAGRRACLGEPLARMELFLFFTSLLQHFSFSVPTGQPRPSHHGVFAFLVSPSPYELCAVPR
Cytochrome P450 3A4, sequence (P08684 whole entry): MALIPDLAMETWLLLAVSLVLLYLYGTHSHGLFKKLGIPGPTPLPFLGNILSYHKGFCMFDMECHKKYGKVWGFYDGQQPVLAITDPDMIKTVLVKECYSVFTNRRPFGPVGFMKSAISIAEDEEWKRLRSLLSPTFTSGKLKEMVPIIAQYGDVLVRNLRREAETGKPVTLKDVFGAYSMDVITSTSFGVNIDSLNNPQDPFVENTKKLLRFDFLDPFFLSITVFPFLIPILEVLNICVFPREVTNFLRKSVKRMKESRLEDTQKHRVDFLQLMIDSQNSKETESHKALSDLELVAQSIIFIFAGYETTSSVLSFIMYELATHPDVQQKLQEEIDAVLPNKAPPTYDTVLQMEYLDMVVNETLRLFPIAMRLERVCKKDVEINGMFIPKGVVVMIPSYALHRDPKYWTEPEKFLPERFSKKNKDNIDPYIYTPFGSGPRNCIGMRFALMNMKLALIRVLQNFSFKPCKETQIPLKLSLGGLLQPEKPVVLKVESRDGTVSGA
Paired box protein Pax-8, sequence (Q06710 whole entry): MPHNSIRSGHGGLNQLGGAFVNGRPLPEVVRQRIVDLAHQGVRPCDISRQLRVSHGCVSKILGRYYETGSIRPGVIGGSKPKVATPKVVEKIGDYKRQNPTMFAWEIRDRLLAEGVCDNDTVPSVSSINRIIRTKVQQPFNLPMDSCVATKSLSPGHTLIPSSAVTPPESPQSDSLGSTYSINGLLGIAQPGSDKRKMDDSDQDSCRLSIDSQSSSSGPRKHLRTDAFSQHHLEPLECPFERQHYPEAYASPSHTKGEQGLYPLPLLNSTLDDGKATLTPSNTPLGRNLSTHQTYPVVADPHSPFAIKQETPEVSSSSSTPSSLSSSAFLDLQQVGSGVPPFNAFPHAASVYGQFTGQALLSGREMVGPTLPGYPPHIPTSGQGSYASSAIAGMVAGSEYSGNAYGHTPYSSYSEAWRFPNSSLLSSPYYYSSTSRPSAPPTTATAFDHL

As for `CNc1nc(-c2ccccc2)nnc1C(F)(F)F`, in experiment [1], the CC50 was 27.7 µM (active). Still for that read-out and setting: the value for `CCCCOc1ccc2c(c1)C(=O)c1cc(O)ccc1-2` was 11.7 µM (active). In the case of `CC(=O)NC(CCc1ccc(Cl)c(Cl)c1)c1cccc(O)c(=O)c1` (stereo unspecified), in experiment [2], the IC50 was > 79 µM (inactive). Besides, in experiment [3], the AC50 was 2.08 µM (active).

Regarding `CCc1ccccc1NC(=O)COc1cccc2ccc(C)nc12`, the EC50 in experiment [4] is reported as > 195 µM (not active).

Regarding `CCOc1ccccc1C1C(C#N)=C(N)Oc2[nH]nc(CC)c21` (stereo unspecified), the concentration at half-maximal activity (AC50) is 7.08 µM (inconclusive) in experiment [5], 13.4 µM (active) in experiment [6] and 17.8 µM (inconclusive) in [7]. Besides, the EC50 in [8] was 7.04 µM (active). For the molecule `CCCN(Cc1nnc(-c2ccccc2Cl)o1)C(=O)c1cc2ccccc2o1`, the CC50 in experiment [1] was 19.5 µM (active). As for `Cn1ncc([N+](=O)[O-])c1C(=O)Nc1ccccc1Cl`, in experiment [4], the EC50 was > 195 µM (not active). As to `FC(F)(F)c1nnc2n1N=C(c1cccs1)CS2`, the CC50 in experiment [1] is 22.6 µM (active). For `CC(C)n1nnnc1SCC(=O)NCc1ccc2c(c1)OCO2`, the AC50 in experiment [7] was 25.1 µM (inconclusive); in experiment [9], 12.6 µM (inconclusive); in [10], 25.1 µM (inconclusive). Turning to `C[C@@H](NC(=O)c1[nH]cnc1C(=O)NCC(=O)OCc1ccccc1)c1ccccc1`, the IC50 in [2] was > 79 µM (inactive). With `O=C(NCc1ccco1)c1cnn2c(C(F)(F)F)cc(-c3cccs3)nc12`, the IC50 in experiment [2] was 34.1 µM (inactive). With `CC(=O)c1cccc(NC(=O)Nc2ccc3c(c2)N(C)C(=O)CS3)c1`, the IC50 in experiment [2] is > 79 µM (inactive).

`O=[N+]([O-])c1ccc(O)c(/C=N/c2ccc3oc(Cc4ccc(Cl)cc4)nc3c2)c1`: the EC50 in experiment [4] is > 195 µM (not active). Regarding `O=C(CNC(=O)c1ccc(F)cc1)N/N=C/c1cc(Br)ccc1OC(=O)/C=C/c1ccco1`, the EC50 was 12.1 µM (active) in experiment [11], 8.72 µM (active) in [12] and 11.8 µM (active) in experiment [13]. Besides, the IC50 in experiment [2] was 19 µM (active). Consider `C[C@@H]1Oc2ccc(C(=O)C[C@@H](C(=O)O)c3ccc4c(c3)OCO4)cc2O1`, for which the AC50 was 5.01 µM (inconclusive) in [14], 6.31 µM (inconclusive) in experiment [7] and 0.794 µM (inconclusive) in [9]. `O=Cc1ccc(OC(=O)Cc2ccc(F)cc2)cc1`: the EC50 in experiment [4] was > 195 µM (not active). As for `COCCn1nnnc1C(C(C)C)N(Cc1cccnc1)Cc1cc2cc(OC)ccc2nc1O` (stereo unspecified), the IC50 in experiment [2] is 21.8 µM (active). `CCCOc1ccc2[nH]c(C(=O)N/N=C/c3cc(OC)c(OC)c(OC)c3)cc2c1`: the IC50 in experiment [2] was > 79 µM (inactive). Also, the AC50 in [3] was 2.89 µM (active).

Take `O=C(Oc1ccccc1)N1CCC[C@@]2(CCN(Cc3ccccc3)C2)C1`: the AC50 is 20 µM (inconclusive) in experiment [14]; 15.8 µM (inconclusive) in [5]; 20 µM (inconclusive) in [7]; 15.8 µM (inconclusive) in experiment [9]; 20 µM (inconclusive) in experiment [10].

Consider `CC(=O)Nc1cc(-c2cccc(C(=O)N(C)C)c2)cn2c(-c3ccc(C(C)=O)cc3)cnc12`, for which the IC50 in experiment [2] is > 79 µM (inactive). Turning to `O=C(CNC(=O)C12CC3CC(CC(C3)C1)C2)NCc1ccccc1`, the EC50 in experiment [4] is recorded as > 195 µM (not active). For `Cc1ccccc1OCC(=O)Nc1ccc([N+](=O)[O-])cc1`, the EC50 in experiment [4] is > 195 µM (not active).

As for `COc1ccc(NS(=O)(=O)c2ccc3[nH]c(COc4ccc5ccccc5c4)nc3c2)cc1`, in [4], the concentration for a half-maximal effect (EC50) was > 195 µM (not active). Turning to `Cc1ccc(S(=O)(=O)N(C)C)cc1NC(=O)COC(=O)Cc1nnc(O)c2ccccc12`, the IC50 in [2] was > 79 µM (inactive). Turning to `Cc1[nH]c2ccccc2c1/C=N/NC(=O)c1cc(-c2ccccc2)[nH]n1`, the IC50 in experiment [2] was > 79 µM (inactive). Consider `C[C@@H]1[C@H]2C=C[C@@H]1[C@@H](c1c3ccc(=O)c(O)c-3oc3c(O)c(O)ccc13)[C@@H]2C(=O)O`, for which the half-maximal activity concentration (AC50) in [14] was 3.98 µM (inconclusive); in experiment [7], 7.94 µM (inconclusive).

In the case of `COc1ccc(CCNC(=O)c2nnc(O)c3ccccc23)cc1`, the AC50 in [14] is 2.24 µM (inconclusive); in [5], 7.08 µM (inconclusive); in experiment [7], 3.16 µM (inconclusive); in [9] it was 7.08 µM (inconclusive); in experiment [10] it was 5.01 µM (inconclusive). Consider `CCCN(CCC)C(=O)CSc1nc2ccsc2c(=O)n1NC(=O)c1ccccc1`, for which, in [4], the EC50 is > 195 µM (not active). As for `CC1(C)OC(=O)C(/C=N/CC(O)c2ccccc2)=C(O)O1` (stereo unspecified), the half-maximal activity concentration (AC50) was 31.6 µM (inconclusive) in experiment [7] and 25.1 µM (inconclusive) in experiment [9].

(Values after ChEMBL document CHEMBL1201862, “PubChem BioAssay data set” (2004).)
